The results in this text go back to ChEMBL document CHEMBL4000217, “Structure-activity relationship of daptomycin analogues with substitution at (2S, 3R) 3-methyl glutamic acid position” (2017).

≈ marks a conversion by molar mass, not a printed value.

The experiment deals with Staphylococcus aureus. Briefly: Antibacterial activity against Staphylococcus aureus isolate 42 […] by CLSI method. In kind it is functional.

Broadly, the MIC is the lowest concentration found to suppress growth.

With `CCCCCCCCCC(=O)N[C@@H](Cc1c[nH]c2ccccc12)C(=O)N[C@H](CC(N)=O)C(=O)N[C@@H](CC(=O)O)C(=O)N[C@@H]1C(=O)NCC(=O)N[C@@H](CCCN)C(=O)N[C@@H](CC(=O)O)C(=O)N[C@H](C)C(=O)N[C@@H](CC(=O)O)C(=O)NCC(=O)N[C@H](CO)C(=O)N[C@@H]([C@H](C)CC(=O)O)C(=O)N[C@@H](CC(=O)c2ccccc2N)C(=O)O[C@@H]1C`, 0.5 mg/L (≈ 0.309 µM) was the least that counted as inhibitory (MIC). As to `CCCCCCCCCC(=O)N[C@@H](Cc1c[nH]c2ccccc12)C(=O)N[C@@H](CC(N)=O)C(=O)N[C@@H](CC(=O)O)C(=O)N[C@@H]1C(=O)NCC(=O)N[C@@H](CCCN)C(=O)N[C@@H](CC(=O)O)C(=O)N[C@H](C)C(=O)N[C@@H](CC(=O)O)C(=O)NCC(=O)N[C@H](CO)C(=O)N[C@@H](C(C)CC(=O)O)C(=O)N[C@@H](CC(=O)c2ccccc2N)C(=O)O[C@@H]1C` (single isomer, unassigned) [DAPTOMYCIN], inhibition of growth (MIC) required 128 mg/L (≈ 79 µM).

As for `CCCCCCCCCC(=O)N[C@@H](Cc1c[nH]c2ccccc12)C(=O)N[C@@H](CC(N)=O)C(=O)N[C@@H](CC(=O)O)C(=O)N[C@@H]1C(=O)NCC(=O)N[C@@H](CCCN)C(=O)N[C@@H](CC(=O)O)C(=O)N[C@H](C)C(=O)N[C@@H](CC(=O)O)C(=O)NCC(=O)N[C@H](CO)C(=O)N[C@@H](C(C)(C)CC(=O)O)C(=O)N[C@@H](CC(=O)c2ccccc2N)C(=O)O[C@@H]1C`, the MIC was found to be 64 mg/L (≈ 39.2 µM).

For `CCCCCCCCCC(=O)N[C@@H](Cc1c[nH]c2ccccc12)C(=O)N[C@@H](CC(N)=O)C(=O)N[C@@H](CC(=O)O)C(=O)N[C@@H]1C(=O)NCC(=O)N[C@@H](CCCN)C(=O)N[C@@H](CC(=O)O)C(=O)N[C@H](C)C(=O)N[C@@H](CC(=O)O)C(=O)NCC(=O)N[C@H](CO)C(=O)N[C@@H]([C@H](C)CC(N)=O)C(=O)N[C@@H](CC(=O)c2ccccc2N)C(=O)O[C@@H]1C`, the MIC was 32 mg/L (≈ 19.8 µM). In turn, `CCCCCCCCCC(=O)N[C@@H](Cc1c[nH]c2ccccc12)C(=O)N[C@@H](CC(N)=O)C(=O)N[C@@H](CC(=O)O)C(=O)N[C@@H]1C(=O)NCC(=O)N[C@@H](CCCN)C(=O)N[C@@H](CC(=O)O)C(=O)N[C@H](C)C(=O)N[C@@H](CC(=O)O)C(=O)NCC(=O)N[C@H](CO)C(=O)N[C@@H]([C@H](CC)CC(=O)O)C(=O)N[C@@H](CC(=O)c2ccccc2N)C(=O)O[C@@H]1C` returned an MIC of 8 mg/L (≈ 4.89 µM).
